Tests used:
Assay type in all cases: biochemical
TMPRSS2 = TMPRSS2 (Homo sapiens, UniProt O15393); assay: PS-SCL / HyCoSuL substrate specificity screening, TMPRSS2; conditions: for P2 Position Substrate Activity for TMPRSS2 (percent substrate cleavage/proteolysis): residue fixed at P2 position of substrate library; for P2 Position Substrate Activity for TMPRSS2 (percent substrate cleavage/proteolysis) / P3 Position Substrate Activity for TMPRSS2 (percent substrate cleavage/proteolysis): best recognized amino acid set to 100%; for P3 Position Substrate Activity for TMPRSS2 (percent substrate cleavage/proteolysis) / P3 Position Various Amino Acids Substrate Activity, TMPRSS2 (percent substrate cleavage/proteolysis): residue fixed at P3 position of substrate library; for P4 Position Various Amino Acids Substrate Activity, TMPRSS2 (percent substrate proteolysis/cleavage): residue fixed at P4 position of substrate library
matriptase = target: T1, matriptase (Homo sapiens, UniProt Q9Y5Y6); assay: HyCoSuL P4-P2 substrate specificity screening, matriptase; conditions: for P2 Position Substrate Activity for matriptase (percent substrate cleavage/proteolysis): residue fixed at P2 position; for P2 Position Substrate Activity for matriptase (percent substrate cleavage/proteolysis) / P3 Position Substrate Activity for matriptase (percent substrate cleavage/proteolysis): P1-Arg HyCoSuL, 100 μM, best recognized amino acid set to 100%; for P3 Position Various Amino Acids Substrate Activity, matriptase (percent substrate cleavage/proteolysis): residue fixed at P3 position of substrate library; for P3 Position Substrate Activity for matriptase (percent substrate cleavage/proteolysis): residue fixed at P3 position; for P4 Position Various Amino Acids Substrate Activity, matriptase (percent substrate proteolysis/cleavage): residue fixed at P4 position of substrate library
T1 sequence (Q9Y5Y6 1-855): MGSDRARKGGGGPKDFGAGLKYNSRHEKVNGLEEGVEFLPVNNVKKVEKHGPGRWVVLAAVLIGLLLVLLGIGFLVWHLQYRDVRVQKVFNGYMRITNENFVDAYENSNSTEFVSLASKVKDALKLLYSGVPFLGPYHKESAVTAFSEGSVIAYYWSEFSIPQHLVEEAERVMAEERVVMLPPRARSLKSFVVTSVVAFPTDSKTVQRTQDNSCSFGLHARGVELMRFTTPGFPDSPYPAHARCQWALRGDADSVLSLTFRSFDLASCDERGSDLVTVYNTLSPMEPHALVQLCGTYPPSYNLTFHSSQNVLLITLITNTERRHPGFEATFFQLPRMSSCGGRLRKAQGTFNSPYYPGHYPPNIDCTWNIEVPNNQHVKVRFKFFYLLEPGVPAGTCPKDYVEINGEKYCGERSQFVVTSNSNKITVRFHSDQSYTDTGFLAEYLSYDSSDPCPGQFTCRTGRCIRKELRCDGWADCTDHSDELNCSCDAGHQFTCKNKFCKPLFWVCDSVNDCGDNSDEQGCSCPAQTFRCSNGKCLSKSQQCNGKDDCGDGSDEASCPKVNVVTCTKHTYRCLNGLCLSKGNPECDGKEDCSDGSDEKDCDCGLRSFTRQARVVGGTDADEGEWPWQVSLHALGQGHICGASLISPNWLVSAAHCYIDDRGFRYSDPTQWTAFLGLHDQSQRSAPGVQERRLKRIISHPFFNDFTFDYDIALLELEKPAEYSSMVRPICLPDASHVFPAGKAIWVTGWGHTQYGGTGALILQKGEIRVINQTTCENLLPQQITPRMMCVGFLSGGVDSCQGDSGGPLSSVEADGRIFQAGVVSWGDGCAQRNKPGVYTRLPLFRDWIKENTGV

hepsin = target: T2, hepsin (Homo sapiens, UniProt P05981); assay: HyCoSuL P4-P2 substrate specificity screening, hepsin; conditions: for P2 Position Substrate Activity for hepsin (percent substrate cleavage/proteolysis): residue fixed at P2 position; for P2 Position Substrate Activity for hepsin (percent substrate cleavage/proteolysis) / P3 Position Substrate Activity for hepsin (percent substrate cleavage/proteolysis): P1-Arg HyCoSuL, 100 μM, best recognized amino acid set to 100%; for P3 Position Substrate Activity for hepsin (percent substrate cleavage/proteolysis): residue fixed at P3 position; for P4 Position Various Amino Acids Substrate Activity, hepsin (percent substrate proteolysis/cleavage): residue fixed at P4 position of substrate library; for P3 Position Various Amino Acids Substrate Activity, hepsin (percent substrate cleavage/proteolysis): residue fixed at P3 position of substrate library
T2 construct: purchased R&D Systems 4776-SE-010

HGFA = target: T3, HGFA (Homo sapiens, UniProt Q04756); assay: HyCoSuL P4-P2 substrate specificity screening, HGFA; conditions: for P2 Position Substrate Activity for HGFA (percent substrate cleavage/proteolysis): residue fixed at P2 position; for P2 Position Substrate Activity for HGFA (percent substrate cleavage/proteolysis) / P3 Position Substrate Activity for HGFA (percent substrate cleavage/proteolysis): P1-Arg HyCoSuL, 100 μM, best recognized amino acid set to 100%; for P3 Position Substrate Activity for HGFA (percent substrate cleavage/proteolysis): residue fixed at P3 position; for P4 Position Various Amino Acids Substrate Activity, HGFA (percent substrate proteolysis/cleavage): residue fixed at P4 position of substrate library; for P3 Position Various Amino Acids Substrate Activity, HGFA (percent substrate cleavage/proteolysis): residue fixed at P3 position of substrate library
T3 sequence (Q04756 373-655): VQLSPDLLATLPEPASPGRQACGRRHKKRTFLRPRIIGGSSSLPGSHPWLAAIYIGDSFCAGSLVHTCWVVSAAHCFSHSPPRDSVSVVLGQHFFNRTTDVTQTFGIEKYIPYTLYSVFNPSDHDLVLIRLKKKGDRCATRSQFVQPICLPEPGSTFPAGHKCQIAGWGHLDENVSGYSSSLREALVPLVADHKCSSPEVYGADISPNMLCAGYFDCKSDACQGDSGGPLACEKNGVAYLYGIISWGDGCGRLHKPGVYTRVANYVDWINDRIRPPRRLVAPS

Chain of TMPRSS2 (O15393 whole entry): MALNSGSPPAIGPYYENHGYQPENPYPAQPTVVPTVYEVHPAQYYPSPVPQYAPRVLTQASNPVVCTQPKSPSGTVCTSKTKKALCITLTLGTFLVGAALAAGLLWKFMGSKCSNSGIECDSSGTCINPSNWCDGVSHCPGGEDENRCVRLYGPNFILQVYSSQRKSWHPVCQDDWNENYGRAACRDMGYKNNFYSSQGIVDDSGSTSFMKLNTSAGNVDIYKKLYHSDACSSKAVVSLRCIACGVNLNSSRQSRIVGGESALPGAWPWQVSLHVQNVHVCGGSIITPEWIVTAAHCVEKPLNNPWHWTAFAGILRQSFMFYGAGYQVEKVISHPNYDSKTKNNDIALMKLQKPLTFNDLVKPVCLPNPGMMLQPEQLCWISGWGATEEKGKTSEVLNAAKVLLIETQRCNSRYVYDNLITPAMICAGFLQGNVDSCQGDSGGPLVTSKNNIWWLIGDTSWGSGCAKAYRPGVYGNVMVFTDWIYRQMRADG
T2 sequence (P05981 163-417 limits assumed): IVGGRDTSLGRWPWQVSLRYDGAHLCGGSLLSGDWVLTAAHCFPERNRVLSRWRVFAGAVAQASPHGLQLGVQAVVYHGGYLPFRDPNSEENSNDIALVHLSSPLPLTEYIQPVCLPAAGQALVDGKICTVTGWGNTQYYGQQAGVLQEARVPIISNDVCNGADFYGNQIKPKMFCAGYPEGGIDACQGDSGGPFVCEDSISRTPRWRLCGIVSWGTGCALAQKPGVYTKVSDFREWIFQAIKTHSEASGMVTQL
T2 sequence (P05981 1-162 partner limits assumed): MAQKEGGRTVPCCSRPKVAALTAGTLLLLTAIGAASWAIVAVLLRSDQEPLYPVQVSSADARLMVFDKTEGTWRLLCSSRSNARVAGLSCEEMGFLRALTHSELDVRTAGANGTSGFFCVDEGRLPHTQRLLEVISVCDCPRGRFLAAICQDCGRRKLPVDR

Substance | P2 Position Substrate Activity for TMPRSS2 (percent substrate cleavage/proteolysis) (TMPRSS2) [%] | P3 Position Substrate Activity for TMPRSS2 (percent substrate cleavage/proteolysis) (TMPRSS2) [%] | P4 Position Various Amino Acids Substrate Activity, TMPRSS2 (percent substrate proteolysis/cleavage) (TMPRSS2) [%] | P2 Position Substrate Activity for matriptase (percent substrate cleavage/proteolysis) (matriptase) [%] | P3 Position Various Amino Acids Substrate Activity, matriptase (percent substrate cleavage/proteolysis) (matriptase) [%] | P3 Position Substrate Activity for matriptase (percent substrate cleavage/proteolysis) (matriptase) [%] | P4 Position Various Amino Acids Substrate Activity, matriptase (percent substrate proteolysis/cleavage) (matriptase) [%] | P2 Position Substrate Activity for hepsin (percent substrate cleavage/proteolysis) (hepsin) [%] | P3 Position Substrate Activity for hepsin (percent substrate cleavage/proteolysis) (hepsin) [%] | P4 Position Various Amino Acids Substrate Activity, hepsin (percent substrate proteolysis/cleavage) (hepsin) [%] | P2 Position Substrate Activity for HGFA (percent substrate cleavage/proteolysis) (HGFA) [%] | P3 Position Substrate Activity for HGFA (percent substrate cleavage/proteolysis) (HGFA) [%] | P4 Position Various Amino Acids Substrate Activity, HGFA (percent substrate proteolysis/cleavage) (HGFA) [%] | P3 Position Various Amino Acids Substrate Activity, TMPRSS2 (percent substrate cleavage/proteolysis) (TMPRSS2) [%] | P3 Position Various Amino Acids Substrate Activity, hepsin (percent substrate cleavage/proteolysis) (hepsin) [%] | P3 Position Various Amino Acids Substrate Activity, HGFA (percent substrate cleavage/proteolysis) (HGFA) [%]
L-Dab | 0.00 | 36.73 | 12.90 | 0 | 66 | 66.02 | 32 | 13.49 | 48.55 | 47.53 | 0.50 | 29.40 | 16.76 |  |  | 
L-Dap | 4.32 | 43.61 | 16.80 | 9 | 52 | 51.80 | 16 | 10.01 | 48.71 | 35.65 | 1.49 | 24.27 | 13.31 |  |  | 
L-Gln | 6.03 |  | 26.44 | 1 | 18 |  | 0 | 0.00 |  | 0.76 | 0.89 |  | 1.96 | 52.35 | 16.72 | 3.47
L-Glu | 6.08 |  | 9.81 | 6 | 44 |  | 18 | 12.19 |  | 29.82 | 3.35 |  | 9.01 | 56.51 | 58.69 | 15.98
